Reference: article PMC12635268, “Novel antimicrobial peptides and peptide-microbiome crosstalk in Appalachian salamander skin” (NPJ Biofilms and Microbiomes, 2025)
Like-named read-outs stand apart in the source and are kept apart here. Ends that are not written are not given here.

What was measured:
[1] = test system: Batrachochytrium dendrobatidis Bd-GPL strain JEL404; conditions: for Bd inhibition score (percent inhibition), mean: slope of growth, positive = inhibition, negative = no inhibition
Description: Bd-peptide challenge assays were conducted with the crude peptides extracted from the salamander skin secretions and with the 20 synthesized peptides. We followed methods by Pereria et al.[49] to conduct assays with the crude peptides using Bd-GPL strain JEL404 at 1 × 10^6 zoospores/mL. Briefly, skin peptide samples were pooled together based on species-site-injection (Table 1). Skin peptides samples were serially diluted 2-fold in MilliQ (Ultrapure Type 1) water and assayed at a concentration of 2.35–75 μg/mL based on starting peptide concentration available. For synthesized peptides, we conducted assays from 15.6 to 500 μg/ml. In both assays, we quantified percent inhibition of each well using slope of growth[90] in which positive values indicate inhibition and negative values indicate no inhibition.

[2] = test system: A. baumannii ATCC 17978; assay: microbe, parasite or virus in culture
Procedure, shortened: (§1)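 Each strain was exposed in duplicate to two-fold peptide dilutions (0.25 to 128 μg/mL) in cation-adjusted Mueller-Hinton broth at 1 × 10⁵ CFU/mL. After 20 h at 37 °C without shaking, the lowest concentration lacking visible growth was recorded following CLSI.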

[3] = test system: A. baumannii ATCC 19606; assay: microbe, parasite or virus in culture
Procedure, shortened: as §1

[4] = test system: E. cloacae ATCC 13047; assay: microbe, parasite or virus in culture
Procedure, shortened: as §1

[5] = test system: E. cloacae ATCC 35549; assay: microbe, parasite or virus in culture
Procedure, shortened: as §1

[6] = test system: E. coli ATCC 35218; assay: microbe, parasite or virus in culture; conditions: E. coli 35218; Week 2 (12/14/2023)
Procedure, shortened: as §1

[7] = test system: E. coli ATCC 43888; assay: microbe, parasite or virus in culture
Procedure, shortened: as §1

[8] = test system: E. faecium ATCC 19434; assay: microbe, parasite or virus in culture
Procedure, shortened: as §1

[9] = test system: E. faecium ATCC 49224; assay: microbe, parasite or virus in culture
Procedure, shortened: as §1

[10] = test system: K. pneumoniae ATCC 13883; assay: microbe, parasite or virus in culture
Procedure, shortened: as §1

[11] = test system: K. pneumoniae ATCC 700603; assay: microbe, parasite or virus in culture; conditions: K. pneumoniae 700603; Week 2 (12/14/2023)
Procedure, shortened: as §1

[12] = test system: P. aeruginosa ATCC 27853; assay: microbe, parasite or virus in culture
Procedure, shortened: as §1

[13] = test system: P. aeruginosa MRSN 5519; assay: microbe, parasite or virus in culture
Procedure, shortened: as §1

[14] = test system: S. aureus ATCC 25923; assay: microbe, parasite or virus in culture
Procedure, shortened: as §1

[15] = test system: S. aureus ATCC 43300; assay: microbe, parasite or virus in culture; conditions: S. aureus 43300; Week 2 (12/14/2023)
Procedure, shortened: as §1

[16] = test system: P. aeruginosa PA01; assay: microbe, parasite or virus in culture; format: cell-based; conditions: P. aeruginosa 15692 (PAO1); Week 2 (12/14/2023)
Procedure, shortened: as §1

[17] = test system: P. aeruginosa PA01 (Si); assay: microbe, parasite or virus in culture; format: cell-based
From the text: Supplement 41522_2025_837_MOESM13_ESM.xlsx, sheet "Table_S13_ESKAPEE-MIC" | column: Bacterial MIC (µg/mL)

[18] = test system: K. pneumoniae 4640
[19] = test system: A. baumannii 5075; conditions: Week 2 (12/14/2023)
[20] = design: method as in Biomatik (vendor); conditions: 1.0 mg peptide in 1.0 ml solvent; peptides synthesized by Biomatik; ref Biomatik (vendor); cited from earlier work
[21] = synthesized peptide 15.625 μg/mL
[22] = synthesized peptide 31.25 μg/mL
[23] = A. baumannii 17978, Week 2 (12/14/2023)
[24] = A. baumannii 19606, Week 2 (12/14/2023)
[25] = E. cloacae 13047, Week 2 (12/14/2023)
[26] = E. cloacae 35549, Week 2 (12/14/2023)
[27] = E. coli 43888, Week 2 (12/14/2023)
[28] = E. faecium 19434, Week 2 (12/14/2023)
[29] = E. faecium 49224, Week 2 (12/14/2023)
[30] = K. pneumoniae 13883, Week 2 (12/14/2023)
[31] = P. aeruginosa 27853, Week 2 (12/14/2023)
[32] = P. aeruginosa 5519, Week 2 (12/14/2023)
[33] = S. aureus 25923, Week 2 (12/14/2023)
[34] = P. aeruginosa PA01 (Si), not typical ESKAPEE strain, Week 2 (12/14/2023)
[35] = K. pneumoniae 4640, Week 2 (12/14/2023)

Substance | Bd inhibition score (percent inhibition), mean [1, 21] [%] | Bd inhibition score (percent inhibition), mean [1, 22] [%] | Bd inhibition score (percent inhibition), mean ([1]; synthesized peptide 62.5 μg/mL) [%] | Bd inhibition score (percent inhibition), mean ([1]; synthesized peptide 125 μg/mL) [%] | Bd inhibition score (percent inhibition), mean ([1]; synthesized peptide 250 μg/mL) [%] | Bd inhibition score (percent inhibition), mean ([1]; synthesized peptide 500 μg/mL) [%] | Bacterial MIC [2, 23] [µg/mL] | Bacterial MIC [3, 24] [µg/mL] | Bacterial MIC [4, 25] [µg/mL] | Bacterial MIC [5, 26] [µg/mL] | Bacterial MIC [6] [µg/mL] | Bacterial MIC [7, 27] [µg/mL] | Bacterial MIC [8, 28] [µg/mL] | Bacterial MIC [9, 29] [µg/mL] | Bacterial MIC [10, 30] [µg/mL] | Bacterial MIC [11] [µg/mL] | Bacterial MIC [15] [µg/mL] | Bacterial MIC [16] [µg/mL] | Bacterial MIC [19] [µg/mL] | Suggest solvent (solubility) [20] | other results
EPVPPGFTPFR [PrAd-Eb13] | -15.8993 | -14.7717 | -15.0589 | -17.1018 | -17.5569 | -12.696 | >128.000 | >128.000 | >128.000 | >128.000 | >128.000 | >128.000 | >128.000 | >128.000 | >128.000 | >128.000 | >128.000 | >128.000 | >128.000 | 1.0mg peptide soluble in 1.0ml H2O | Bacterial MIC [12, 31]: >128.000 µg/mL; Bacterial MIC [13, 32]: >128.000 µg/mL; Bacterial MIC [14, 33]: >128.000 µg/mL; Bacterial MIC [17, 34]: >128.000 µg/mL; Bacterial MIC [18, 35]: >128.000 µg/mL
SGLRGSL [PrMb-Eb19] | – | – | -38.0157 | – | – | – | – | – | – | – | >128.000 | – | – | – | – | >128.000 | >128.000 | >128.000 | >128.000 | 1.0mg peptide soluble in 1.0ml H2O | Bacterial MIC ([2]; ATCC 17978, 20 h): >128.000 µg/mL; Bacterial MIC ([3]; ATCC 19606, 20 h): >128.000 µg/mL; Bacterial MIC ([4]; ATCC 13047, 20 h): >128.000 µg/mL; Bacterial MIC ([5]; ATCC 35549, 20 h): >128.000 µg/mL; Bacterial MIC ([7]; ATCC 43888, 20 h): >128.000 µg/mL; Bacterial MIC ([8]; ATCC 19434, 20 h): >128.000 µg/mL; Bacterial MIC ([9]; ATCC 49224, 20 h): >128.000 µg/mL; Bacterial MIC ([10]; ATCC 13883, 20 h): >128.000 µg/mL; Bacterial MIC ([12]; ATCC 27853, 20 h): >128.000 µg/mL; Bacterial MIC ([13]; MRSN 5519, 20 h): >128.000 µg/mL; Bacterial MIC ([14]; ATCC 25923, 20 h): >128.000 µg/mL; Bacterial MIC ([17]; Si): >128.000 µg/mL; Bacterial MIC ([18]; 4640, 20 h): >128.000 µg/mL
FPRPPGFTPFR [PrAd-Eb12] | -2.358 | 4.727 | 5.096 | 3.64 | 0.8166 | 9.489 | >128.000 | >128.000 | >128.000 | >128.000 | >128.000 | >128.000 | >128.000 | >128.000 | >128.000 | >128.000 | >128.000 | >128.000 | >128.000 | 1.0mg peptide soluble in 1.0ml H2O | mild Bd inhibition, average across concentrations ([1]; synthesized peptide, concentrations down to 31.25 μg/mL): 1–9.5%; Bacterial MIC [12, 31]: >128.000 µg/mL; Bacterial MIC [13, 32]: >128.000 µg/mL; Bacterial MIC [14, 33]: >128.000 µg/mL; Bacterial MIC [17, 34]: >128.000 µg/mL; Bacterial MIC [18, 35]: >128.000 µg/mL
RMIRRPPGFTPFR [PrAd-Eb10] | -10.4305 | -6.071 | -6.0656 | -13.7553 | -14.8924 | -12.1229 | >128.000 | >128.000 | >128.000 | >128.000 | >128.000 | >128.000 | >128.000 | >128.000 | >128.000 | >128.000 | >128.000 | >128.000 | >128.000 | 1.0mg peptide soluble in 1.0ml H2O | Bacterial MIC [12, 31]: >128.000 µg/mL; Bacterial MIC [13, 32]: >128.000 µg/mL; Bacterial MIC [14, 33]: >128.000 µg/mL; Bacterial MIC [17, 34]: >128.000 µg/mL; Bacterial MIC [18, 35]: >128.000 µg/mL
DVGTQGLSPLR [PrAd-Eb22] | – | – | – | – | – | – | – | – | – | – | >128.000 | – | – | – | – | >128.000 | >128.000 | >128.000 | >128.000 | 1.0mg peptide soluble in 1.0ml H2O | Bacterial MIC ([2]; ATCC 17978, 20 h): >128.000 µg/mL; Bacterial MIC ([3]; ATCC 19606, 20 h): >128.000 µg/mL; Bacterial MIC ([4]; ATCC 13047, 20 h): >128.000 µg/mL; Bacterial MIC ([5]; ATCC 35549, 20 h): >128.000 µg/mL; Bacterial MIC ([7]; ATCC 43888, 20 h): >128.000 µg/mL; Bacterial MIC ([8]; ATCC 19434, 20 h): >128.000 µg/mL; Bacterial MIC ([9]; ATCC 49224, 20 h): >128.000 µg/mL; Bacterial MIC ([10]; ATCC 13883, 20 h): >128.000 µg/mL; Bacterial MIC ([12]; ATCC 27853, 20 h): >128.000 µg/mL; Bacterial MIC ([13]; MRSN 5519, 20 h): >128.000 µg/mL; Bacterial MIC ([14]; ATCC 25923, 20 h): >128.000 µg/mL; Bacterial MIC ([17]; Si): >128.000 µg/mL; Bacterial MIC ([18]; 4640, 20 h): >128.000 µg/mL
